IC50 data for six compounds are collected here from US20240415819A1, “MACROCYCLIC COMPOUNDS AS PROTEASOME SUBUNIT BETA TYPE-5 INHIBITORS” (Lead Discovery Center GmbH, priority 2021, published 2024).

Like-named read-outs stand apart in the source and are kept apart here. A value given as a limit tells only on which side of the number the result lay.

Assay [1] deals with A549 (human lung carcinoma cell line). Put plainly: Glo assay of A549 cells (Table 3; ProteasomeGlo plating scheme). In kind it is cell-based. The following applies: Homo sapiens. In short, it runs like this: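 IC50 values (nM) come from a cell-based chymotrypsin-like Proteasome-Glo luminescence assay. Compound exposure ran 105 min at 37° C.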
The target of assay [2] is T1, β5 subunit of the human immunoproteasome (IPS) (Homo sapiens, UniProt P28062).
T1 construct: purchased Boston Biochem E-370
As to the kind of experiment: β5 inhibition assay, human immunoproteasome (Suc-LLVY-AMC). In kind it is biochemical. Conditions: IC50 class, Suc-LLVY-AMC substrate. In short, it runs like this: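 Human immunoproteasome (1 nM final) was preincubated 10 min at RT with compound in 100 mM HEPES pH 7.5, 50 mM NaCl, 0.02% SDS, 1 mM DTT. Suc-LLVY-AMC (22.6 μM final) was then added for 4 h at RT in the dark. After stopping with 1 μM bortezomib, AMC fluorescence was read (ex 355/em 460 nm).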

The mark [3] stands for this setting: A549 cells, read-out: PGLo A549.

As to `COCCOCCOCCOC(=O)N[C@H]1CC(=O)N2CCCC(CCOc3ccc(C)c(c3)CNC(=O)[C@H](CCc3ccccc3)NC1=O)C2` (stereo partly drawn) [Compound 220, 2-(2-(2-methoxyethoxy)ethoxy)ethyl ((9R,12R)-5^4-methyl-8,11,14-trioxo-9-phenethyl-4-oxa-7,10-diaza-1(3,1)-piperidina-5(1,3)-benzenacyclotetradecaphane-12-yl)carbamate], the IC50 in assay [1] (A549, read-out: PGLo A549 [nM]) was under 100 nM; in assay [2], under 100 nM.

In the case of `Cc1ccc2cc1CNC(=O)[C@H](CCc1ccccc1)NC(=O)[C@@H](NC(=O)c1ccccn1)CC(=O)N1CCCC(CCO2)C1` (stereo partly drawn) [Compound 40, N-((9S,12S)-5^4-methyl-8,11,14-trioxo-9-phenethyl-4-oxa-7,10-diaza-1(3,1)-piperidina-5(1,3)-benzenacyclotetradecaphane-12-yl)picolinamide], the IC50 in assay [1] (setting [3]) and in assay [2] was under 100 nM throughout.

Take `COc1ccc(CC(=O)N[C@H]2CC(=O)N3CCCC(CCOc4ccc(C)c(c4)CNC(=O)[C@H](CCc4ccccc4)NC2=O)C3)cc1OC` (stereo partly drawn) [Compound 63, 2-(3,4-dimethoxyphenyl)-N-((9S,12S)-5^4-methyl-8,11,14-trioxo-9-phenethyl-4-oxa-7,10-diaza-1(3,1)-piperidina-5(1,3)-benzenacyclotetradecaphane-12-yl)acetamide]: the IC50 in assay [1] (setting [3]) and in assay [2] was under 100 nM each time.

Consider `C=CC(=O)N[C@H]1CC(=O)N2CCCC(CCOc3ccc(C)c(c3)CNC(=O)[C@H](CCc3ccccc3)NC1=O)C2` (stereo partly drawn) [Compound 181, N-((9S,12S)-5^4-methyl-8,11,14-trioxo-9-phenethyl-4-oxa-7,10-diaza-1(3,1)-piperidina-5(1,3)-benzenacyclotetradecaphane-12-yl)acrylamide], for which the IC50 in assay [1] (setting [3]) and in assay [2] was under 100 nM each time.

For `CCOC(=O)N[C@H]1CC(=O)N2CCCC(CCOc3ccc(C)c(c3)CNC(=O)[C@H](CCc3ccccc3)NC1=O)C2` (stereo partly drawn) [Compound 39, ethyl ((9S,12S)-5^4-methyl-8,11,14-trioxo-9-phenethyl-4-oxa-7,10-diaza-1(3,1)-piperidina-5(1,3)-benzenacyclotetradecaphane-12-yl)carbamate], the IC50 was under 100 nM in assay [1] (A549, read-out: PGLo A549 [nM]) and under 100 nM in assay [2].

As for `Cc1ccc2cc1CNC(=O)[C@H](C)NC(=O)CCC(=O)N1CCCC(CCO2)C1` (stereo partly drawn) [Compound 78, (9S)-5^4,9-dimethyl-4-oxa-7,10-diaza-1(3,1)-piperidina-5(1,3)-benzenacyclotetradecaphane-8,11,14-trione], the IC50 in assay [1] (setting [3]) was over 5000 nM; in assay [2] it was 100 to 500 nM.
